Assay results: patent publication US20250276955A1, “CORONAVIRUS MAIN PROTEASE INHIBITORS AND METHODS USING SAME” (Baylor College of Medicine, priority 2021, published 2025)
Converted amounts (≈) assume the structure as drawn. Read-outs that look alike come from different tables or passages of the source.

Experiments:
SARS-COV-2 M^pro-His6 = SARS-COV-2 M^pro-His6 (Severe acute respiratory syndrome coronavirus 2, UniProt P0DTD1); test: biochemical; assay type: biochemical
[1] = target: SARS-COV-2 M^pro (authentic N- and C-termini) (Severe acute respiratory syndrome coronavirus 2, UniProt P0DTD1); test: biochemical; assay type: biochemical; details: for M^pro Ki: 25 nM enzyme, 15 μM fluorescent peptide, Morrison equation, Inactive = less than 50% inhibition at 25 μM compound; for Ki,app: Table 5
[2] = Apparent solubility in PBS buffer; details: for solubility: PBS buffer with 2% DMSO, aqueous buffer, kinetic from dmso stock
Human Cathepsin B = target: T1, Human Cathepsin B (Homo sapiens, UniProt P07858); test: Cathepsin B assay; assay type: biochemical
T1 construct: purchased BPS Bioscience 79590
Procedure: A kit from BPS Bioscience (#79590) was used with adjustments to the manufacturer's protocol as follows: The activated enzyme was diluted 250-fold just before use, and the reaction was run at RT in black 96 half-area plates in a total reaction volume of 50 uL containing 0.01% Tween-20. Instead of measuring endpoints at 60 min the increase in fluorescence (Ex 360 nm, Em 460 nm) per second (RFU/s) was obtained from linear progress curves over 10 min. Fractional activities were calculated from reactions with no inhibitors. E-64 was used as a positive control.

[3] = tested on: SARS-COV-2 (USA_WA1/2020 isolate) in VERO E6 cells; test: Real-Time Cell Analysis (RTCA) assay of SARS-COV-2 replication; assay type: cell-based; details: VERO E6 cells, 75 h
[4] = Metabolic stability in human liver microsomes; assay type: in vitro ADME; details: 0.5 mg protein/mL, 2.0 μM compound, 1.0 mM NADPH
Procedure: (§1) The samples were collected at specific time-points 0, 30, and 60 min in duplicate. The reactions were terminated by adding an equivalent volume of ice-cold methanol and vortexed. […] Three μL of the supernatant was analyzed by UHPLC-Q Exactive Orbitrap MS (Thermo Fisher Scientific, USA) equipped with 50 mm×4.6 mm column (XDB C-18, Agilent Technologies, USA). The column temperature was maintained at 40° C. The flow rate was at 0.3 mL/min with a 30% mobile phase (acetonitrile containing 0.1% formic acid). Q Exactive MS was operated in positive mode with electrospray ionization. Ultra-pure nitrogen was applied as the sheath (45 arbitrary unit), auxiliary (10 arbitrary unit), sweep (1.0 arbitrary unit) and the collision gas. […] MS data were acquired from 80 to 1,200 Da in profile mode.

[5] = Metabolic stability in mouse liver microsomes; assay type: in vitro ADME; details: 0.5 mg protein/mL, 2.0 μM compound, 1.0 mM NADPH
Procedure: as §1

HOVPro-Gi.1 = target: T2, HOVPro-Gi.1 (Norovirus, UniProt Q83883); test: Thermal shift, HOVPro-Gi.1; assay type: binding; details: 50 µM
T2 construct: HOVPro-Gi.1
T2 sequence (Q83883 1101-1281): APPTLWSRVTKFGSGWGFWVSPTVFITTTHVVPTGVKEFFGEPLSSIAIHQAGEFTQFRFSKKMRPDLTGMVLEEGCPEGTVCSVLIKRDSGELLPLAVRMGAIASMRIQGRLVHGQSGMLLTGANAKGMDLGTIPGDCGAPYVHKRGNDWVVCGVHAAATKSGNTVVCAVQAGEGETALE

human thrombin = target: T3, human thrombin (Homo sapiens, UniProt P00734); test: Thrombin fluorescence assay; assay type: biochemical; details: fluorescence assay
T3 construct: purchased Sigma-Aldrich MAK243

[6] = target: SARS-CoV-2 main protease (M^pro) (Severe acute respiratory syndrome coronavirus 2, UniProt P0DTD1); test: Protein thermal shift stability assay (SYPRO Orange); assay type: binding; details: 50 μM compound; […]; 50 µM
HOVPro-Gii.4 = test: Thermal shift, HOVPro-Gii.4; assay type: binding; details: 50 µM
[7] = Table 3, column a (footnote not given), read-out: Kiapp (nM)^a
[8] = Table 3, column b (footnote not given), read-out: Kiapp (nM)^b
[9] = 25 nM enzyme, 15 μM fluorescent peptide, Morrison equation, Inactive = less than 50% inhibition at 25 μM compound
[10] = Table 3, column a (footnote not given)
[11] = Table 3, column b (footnote not given)
[12] = Ki, app towards SARS-CoV-2 M^pro, athentic termini, authentic termini
[13] = Kiapp (nM)^b, Table 3, column b (footnote not given)

SMILES: CCC[C@H](NC(=O)c1cccc2nc(-c3cncc4ccccc34)n(CCCC(=O)NC)c12)c1ccc(C(F)(F)F)cc1 [CDD-1830]
- Ki (SARS-COV-2 M^pro-His6; [7]): 5.6 ± 0.5 nM
- Ki [1, 8]: 6.5 ± 1 nM

SMILES: O=C1CCOc2ccc(-c3cccc4[nH]ncc34)cc21 [CDD-2037]
- M^pro-His Ki (SARS-COV-2 M^pro-His6; [9]): Inactive
- M^pro Ki [1]: Inactive

SMILES: CCC[C@H](NC(=O)c1cccc2nc(-c3cncc4ccccc34)n(C(C)C)c12)c1ccc(C(F)(F)F)cc1 [CDD-1804]
- Kiapp (nM)^a (SARS-COV-2 M^pro-His6; [10]): Inactive
- Kiapp (nM)^b [1, 11]: Inactive

SMILES: COc1cc(-c2cccc3[nH]ncc23)ccc1OCC(=O)N(C)C [CDD-1793, 2-(4-(1H-indazol-4-yl)-2-methoxyphenoxy)-N,N-dimethylacetamide]
- M^pro-His Ki (SARS-COV-2 M^pro-His6; [9]): Inactive
- M^pro inhibition (in words) [1]: completely abolished the activity
- M^pro Ki [1]: Inactive
- Ki,app [1]: Inactive

SMILES: CNC(=O)CCCn1c(-c2cncc3ccccc23)nc2cccc(C(=O)NCc3ccc4ccccc4c3)c21 [CDD-1925]
- Ki (SARS-COV-2 M^pro-His6; [7]): 51.3 ± 7.5 nM
- Ki [1, 8]: 42.5 nM

SMILES: CNC(=O)CCCn1c(-c2cccc3ccccc23)nc2cccc(C(=O)N[C@@H](C)c3ccc4ccccc4c3)c21 [CDD-1885]
- Kiapp (nM)^a (SARS-COV-2 M^pro-His6; [10]): Inactive
- Kiapp (nM)^b [1, 11]: Inactive

SMILES: C[C@H](NC(=O)c1cccc2nc(-c3cncc4ccccc34)n(CCCC(=O)O)c12)c1ccc2ccccc2c1 [CDD-1972]
- Ki [1, 8]: 87.9 ± 8.4 nM

SMILES: CCC[C@H](NC(=O)c1cccc2nc(-c3cncc4ccccc34)n(CCCC(=O)NC)c12)c1ccc(C)cc1 [CDD-1934]
- Ki [1, 8]: 27.4 ± 2.4 nM

SMILES: CCC[C@H](NC(=O)c1cccc2nc(-c3cncc4ccccc34)n([C@H]3C[C@H](C(=O)NC)C3)c12)c1cccc(C(F)(F)F)c1 [CDD-1795]
- solubility [2]: 50.4 µM (≈ 30.2 µg/mL)
- Ki (SARS-COV-2 M^pro-His6; [7]): 29.4 ± 4.3 nM
- Ki [1, 12]: 35.2 nM
- Ki [1, 13]: 35.2 ± 4.9 nM
- Human Cathepsin B, Fractional Remaining Activity (Human Cathepsin B): 1.07

SMILES: CN(C)C(=O)COc1ccc(-c2cccc3[nH]ncc23)cc1C#N [CDD-2038]
- M^pro-His Ki (SARS-COV-2 M^pro-His6; [9]): Inactive
- M^pro Ki [1]: Inactive

SMILES: CNC(=O)[C@H]1C[C@H](n2c(-c3cncc4ccccc34)nc3cccc(C(=O)NC(C)C)c32)C1 [CDD-1842]
- Kiapp (nM)^a (SARS-COV-2 M^pro-His6): Inactive
- Kiapp (nM)^b [1]: Inactive

SMILES: CNC(=O)[C@H]1C[C@H](n2c(-c3cncc4ccccc34)nc3cccc(C(=O)NC(C)c4ccc(C(F)(F)F)cc4)c32)C1 (some centres unmarked) [CDD-1829]
- Ki (SARS-COV-2 M^pro-His6; [7]): 45.7 ± 3.7 nM
- Ki [1, 8]: 47.9 ± 4.7 nM

SMILES: CCC[C@H](NC(=O)c1cccc2nc(-c3cncc4ccccc34)n(C3CCC3)c12)c1ccc(C(F)(F)F)cc1 [CDD-1806]
- solubility [2]: 0.1 µM (≈ 0.0543 µg/mL)
- Ki (SARS-COV-2 M^pro-His6): 165 ± 12.9 nM
- Ki [1, 12]: 137 nM
- Ki [1, 13]: 137 ± 11.6 nM
- Human Cathepsin B, Fractional Remaining Activity (Human Cathepsin B): 0.94

SMILES: COc1cc(-c2cccc3[nH]ncc23)cc(C(C)=O)c1OCC(=O)N(C)C [CDD-1883]
- M^pro-His Ki (SARS-COV-2 M^pro-His6; [9]): Inactive
- M^pro Ki [1]: Inactive

SMILES: CNC(=O)CCCn1c(-c2ccnc3ccccc23)nc2cccc(C(=O)N[C@@H](C)c3ccc4ccccc4c3)c21 [CDD-1906]
- Kiapp (nM)^a (SARS-COV-2 M^pro-His6; [10]): Inactive
- Kiapp (nM)^b [1, 11]: Inactive

SMILES: CNC(=O)CCCn1c(-c2ccc(N)nc2)nc2cccc(C(=O)N[C@@H](C)c3ccc4ccccc4c3)c21 [CDD-1926]
- Kiapp (nM)^a (SARS-COV-2 M^pro-His6; [10]): Inactive
- Kiapp (nM)^b [1, 11]: Inactive

SMILES: COc1cc(-c2cccc3c2cnn3C)cc(C=O)c1OCC(=O)N(C)C [CDD-1847, 2-(2-formyl-6-methoxy-4-(1-methyl-1H-indazol-4-yl)phenoxy)-N,N-dimethylacetamide]
- prevention of SARS-COV-2 induced cell death (in words) [3]: unable to prevent cell death
- M^pro-His Ki (SARS-COV-2 M^pro-His6; [9]): Inactive
- M^pro inhibition (in words) [1]: completely lost activity
- M^pro Ki [1]: Inactive

SMILES: Cc1nnc2n1-c1ccc(Cl)cc1C(c1ccccc1)=NC2 [Alprazolam, reference compound]
- HLM t1/2 (half-life) [4]: 832
- MLM t1/2 (half-life) [5]: 296

SMILES: CCC[C@H](NC(=O)c1cccc2nc(-c3cccnc3)n([C@H]3C[C@H](C(=O)NC)C3)c12)c1ccc(C(F)(F)F)cc1 [CDD-1831]
- Kiapp (nM)^a (SARS-COV-2 M^pro-His6): Inactive
- Kiapp (nM)^b [1]: Inactive

SMILES: CCCC(NC(=O)c1cccc2nc(-c3cncc4ccccc34)n([C@H]3C[C@H](C(=O)NC)C3)c12)c1ccc(C(F)(F)F)cc1 (some centres unmarked) [CDD-1732]
- Measured apparent solubility in PBS buffer (2% DMSO) ([2]; PBS buffer, 2% DMSO): 26.9 µM
- ΔTm of HOVPro-Gi.1 at 50 μM compound conc. (HOVPro-Gi.1): −0.82 °C
- Thrombin inhibition (human thrombin): None
- ΔTm of Mpro at 50 μM compound conc. [6]: 0.61 °C
- ΔTm of HOVPro-Gii.4 at 50 μM compound conc. (HOVPro-Gii.4): −1.24 °C

SMILES: CCC[C@H](NC(=O)c1cccc2nc(-c3cncc4ccccc34)n([C@H]3C[C@H](C(=O)NC)C3)c12)c1ccccc1 [CDD-1843]
- Kiapp (nM)^a (SARS-COV-2 M^pro-His6; [10]): Inactive
- Kiapp (nM)^b [1, 11]: Inactive

SMILES: COC(=O)c1cc(-c2cccc3[nH]ncc23)cc(OC)c1OCC(=O)N(C)C [CDD-1982]
- M^pro-His Ki (SARS-COV-2 M^pro-His6; [9]): Inactive
- M^pro Ki [1]: Inactive

SMILES: CCC[C@H](NC(=O)c1cccc2nc(-c3cncc4ccccc34)n([C@H]3CC[C@H](C(=O)NC)C3)c12)c1ccc(C(F)(F)F)cc1 [CDD-1790]
- solubility [2]: 52.1 µM (≈ 32 µg/mL)
- Ki (SARS-COV-2 M^pro-His6; [7]): 621 ± 46 nM
- Ki [1, 12]: 663 nM
- Ki [1, 8]: 663 ± 66 nM

SMILES: CNC(=O)[C@H]1C[C@H](n2c(-c3cncc4ccccc34)nc3cccc(C(=O)N[C@@H](C)c4ccccc4)c32)C1 [CDD-1841]
- Ki (SARS-COV-2 M^pro-His6; [7]): 571 ± 72.7 nM
- Ki [1, 8]: 565 ± 55.3 nM

SMILES: COc1cc(-c2cccc3[nH]ncc23)cc(C(=O)CO)c1OCC(=O)N(C)C [CDD-1886]
- Ki (SARS-COV-2 M^pro-His6; 25 nM enzyme, 15 μM fluorescent peptide, Morrison equation, Inactive = less than 50% inhibition at 25 μM compound, read-out: M^pro-His Ki): 15700 ± 1200 nM
- decrease of M^pro inhibition relative to CDD-1713 [1]: greater than 100 fold
- Ki ([1]; read-out: M^pro Ki): 21200 ± 1500 nM

SMILES: CCC[C@H](NC(=O)c1cccc2nc(-c3cncc4ccccc34)n(C3CCNCC3)c12)c1ccc(C(F)(F)F)cc1 [CDD-1818]
- Ki (SARS-COV-2 M^pro-His6; [7]): 1470 ± 152 nM
- Ki [1, 8]: 1710 ± 128 nM

SMILES: COc1cc(-c2cccc3[nH]ncc23)cc(CO)c1OCC(=O)N(C)C [CDD-1776]
- M^pro-His Ki (SARS-COV-2 M^pro-His6; [9]): Inactive
- M^pro inhibition (in words) [1]: completely abolished the activity
- M^pro Ki [1]: Inactive
- Ki,app [1]: Inactive

SMILES: CNC(=O)CCCn1c(-c2ccc3cnccc3c2)nc2cccc(C(=O)N[C@@H](C)c3ccc4ccccc4c3)c21 [CDD-1884]
- Kiapp (nM)^a (SARS-COV-2 M^pro-His6; [10]): Inactive
- Kiapp (nM)^b [1, 11]: Inactive

SMILES: CNC(=O)CCCn1c(-c2ccc3cccnc3n2)nc2cccc(C(=O)N[C@@H](C)c3ccc4ccccc4c3)c21 [CDD-1905]
- Kiapp (nM)^a (SARS-COV-2 M^pro-His6; [10]): Inactive
- Kiapp (nM)^b [1, 11]: Inactive

SMILES: CCOC(=O)/C=C/c1cc(-c2cccc3[nH]ncc23)cc(OC)c1OCC(=O)N(C)C [CDD-1971]
- M^pro-His Ki (SARS-COV-2 M^pro-His6; [9]): Inactive
- M^pro Ki [1]: Inactive

SMILES: CNC(=O)CCCn1c(-c2cnccc2C)nc2cccc(C(=O)N[C@@H](C)c3ccc4ccccc4c3)c21 [CDD-1924]
- Ki [1, 8]: 426 ± 46.4 nM
